The source of these data is ChEMBL document CHEMBL1177749, “Tetracyclic chromane derivatives from Rhododendron anthopogonoides” (J Nat Prod, 2010).

pIC50: −log10 of the molar value.

For this test, the system named is Mast cell. Nature of the test: Inhibition of compound 48/80-induced histamine release in Wister rat Peritoneal mast cells. It counts as functional, cell-based.
In the case of `Cc1cc2c(c(O)c1C(=O)O)[C@H]1[C@@H]3[C@@](C)(CCC[C@]3(C)O2)[C@H]1C(=O)CC(C)C` [ANTHOPOGOCHROMANE], the pIC50 was 3.94.
Take `C/C(=C\CC[C@@]1(C)C=Cc2c(cc(C)c(C(=O)O)c2O)O1)CC(=O)CC(C)C` [ANTHOPOGOCHROMENE A]: the pIC50 was 4.20.
`COc1ccc2c(c1)c(CC(=O)O)c(C)n2C(=O)c1ccc(Cl)cc1` [INDOMETHACIN] showed a negative logarithm of the IC50 (pIC50) of 3.60. Against the preceding compound, the pIC50 is 0.60 log units lower.

The pIC50 is the IC50 on a negative log10 scale, so that one unit is a factor of ten. Lower therefore signals a high IC50.
